# Data from ChEMBL document CHEMBL1141868, “Synthesis, biological activity, and X-ray crystal structural analysis of diaryl ether inhibitors of malarial enoyl acyl carrier protein reductase. Part 1: 4'-substituted triclosan derivatives” (Bioorg Med Chem Lett, 2005).
# What was measured:
# [1] = target: T1, Enoyl-acyl-carrier protein reductase (Plasmodium falciparum, UniProt Q965D5); assay: Inhibition of PfENR enzymatic activity
# T1 sequence (Q965D5 whole entry): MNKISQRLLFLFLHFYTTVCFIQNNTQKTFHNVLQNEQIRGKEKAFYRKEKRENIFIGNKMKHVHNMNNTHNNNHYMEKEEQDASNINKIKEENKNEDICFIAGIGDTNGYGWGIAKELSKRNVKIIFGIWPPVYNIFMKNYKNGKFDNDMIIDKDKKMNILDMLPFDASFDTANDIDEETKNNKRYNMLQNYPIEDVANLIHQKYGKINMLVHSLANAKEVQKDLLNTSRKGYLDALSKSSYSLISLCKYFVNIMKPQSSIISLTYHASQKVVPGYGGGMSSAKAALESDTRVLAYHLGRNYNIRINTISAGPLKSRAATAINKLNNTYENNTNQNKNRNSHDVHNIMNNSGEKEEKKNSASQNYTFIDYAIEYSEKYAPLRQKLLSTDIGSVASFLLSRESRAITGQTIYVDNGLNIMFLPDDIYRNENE
# Plasmodium falciparum [2] = assay: Inhibition of drug-resistant Plasmodium falciparum Dd2 after 72 hrs; format: functional, organism-based; settings: Dd2, 72 h
# Plasmodium falciparum [3] = assay: Inhibition of drug-sensitive Plasmodium falciparum 3D7 after 72 hrs; format: functional, organism-based; settings: 3D7, 72 h
Compound,IC50 [1] [µM],EC50 (Plasmodium falciparum [2]) [µM],EC50 (Plasmodium falciparum [3]) [µM]
O=C(O)c1ccc(Oc2ccc(Cl)cc2O)c(Cl)c1,0.55,130,110
NC(=O)Nc1ccc(Oc2ccc(Cl)cc2O)c(Cl)c1,0.16,120,110
O=S(=O)(Nc1ccc(Oc2ccc(Cl)cc2O)c(Cl)c1)c1ccc2ccccc2c1,2.5,33.9,23.5
O=[N+]([O-])c1ccc(Oc2ccc(Cl)cc2O)c(Cl)c1,0.18,3.2,2.1
Nc1ccc(Oc2ccc(Cl)cc2O)c(Cl)c1,0.36,140,120
CN(C)C(=O)c1ccc(Oc2ccc(Cl)cc2O)c(Cl)c1,0.46,95.7,68.4
O=C(Nc1ccc(Oc2ccc(Cl)cc2O)c(Cl)c1)N1CCOCC1,0.25,86.4,66.8
O=C(NO)c1ccc(Oc2ccc(Cl)cc2O)c(Cl)c1,1.2,30.6,31.2
CC(=O)Nc1ccc(Oc2ccc(Cl)cc2O)c(Cl)c1,0.057,50.9,52.2
CNC(=O)c1ccc(Oc2ccc(Cl)cc2O)c(Cl)c1,0.31,100,77.8
Oc1cc(Cl)ccc1Oc1ccc(NCc2ccccc2)cc1Cl,0.14,47.5,35.8
O=C(c1ccc(Oc2ccc(Cl)cc2O)c(Cl)c1)N1CCCCC1,0.68,18,11.7
N#Cc1ccccc1CNc1ccc(Oc2ccc(Cl)cc2O)c(Cl)c1,0.56,45.4,26.7
O=C(c1ccc(Oc2ccc(Cl)cc2O)c(Cl)c1)N1CCOCC1,0.2,94.5,63.5
N#Cc1ccc(Oc2ccc(Cl)cc2O)c(Cl)c1,0.12,5.4,3.9
N#CCc1ccc(Oc2ccc(Cl)cc2O)c(Cl)c1,0.19,36.4,23.1
O=S(=O)(Nc1ccc(Oc2ccc(Cl)cc2O)c(Cl)c1)c1cccc2ccccc12,0.59,43.7,34.3
Oc1cc(Cl)ccc1Oc1ccc(Cl)cc1Cl [TRICLOSAN],0.073,3.9,2.9
Oc1cc(Cl)ccc1Oc1ccc(-c2nn[nH]n2)cc1Cl,0.413,> 150,120
O=C(Nc1ccc(Oc2ccc(Cl)cc2O)c(Cl)c1)c1ccccc1,0.17,83.9,57.2
O=C(NCc1ccccc1)c1ccc(Oc2ccc(Cl)cc2O)c(Cl)c1,3,20.6,7.5
NC(=O)c1ccc(Oc2ccc(Cl)cc2O)c(Cl)c1,0.12,100,96.3
O=S(=O)(Nc1ccc(Oc2ccc(Cl)cc2O)c(Cl)c1)c1ccccc1,0.37,77.5,55.1
Oc1ccccc1CNc1ccc(Oc2ccc(Cl)cc2O)c(Cl)c1,0.32,5.6,4.5
O=C(c1ccc(Oc2ccc(Cl)cc2O)c(Cl)c1)N1CCCC1,0.81,42.6,20.7
Oc1ccc(Oc2ccc(Cl)cc2O)c(Cl)c1,0.22,87.8,65.3
O=S(=O)(Nc1ccc(Oc2ccc(Cl)cc2O)c(Cl)c1)C(F)(F)F,0.14,> 120,> 120
